Assay results reported in PMC9555310, “Novel inhibitors and activity-based probes targeting serine proteases” (Frontiers in Chemistry, 2022).
pKi: −log10 of the molar value. “And” between values parts separate entries of the source, which are not always exact repeats. Equal values may be shown once.

Biological target: T1, neutrophil elastase (NE) (Homo sapiens, UniProt P08246)
T1 construct: purchased Calbiochem
T1 sequence (P08246 30-267): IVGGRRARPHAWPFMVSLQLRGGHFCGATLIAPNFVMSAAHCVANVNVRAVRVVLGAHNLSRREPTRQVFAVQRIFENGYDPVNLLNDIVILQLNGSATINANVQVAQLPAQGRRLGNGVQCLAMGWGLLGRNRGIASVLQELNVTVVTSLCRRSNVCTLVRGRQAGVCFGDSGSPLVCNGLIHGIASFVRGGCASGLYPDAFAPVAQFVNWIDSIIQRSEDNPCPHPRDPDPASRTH
Assay: Irreversible inhibition kinetics of neutrophil elastase (fluorogenic substrate progress curves)
Assay type: biochemical
Experimental: A range of inhibitor concentrations were prepared from a 10 mM stock solution of the test compounds (NAP533, NAP559, NAP800, NAP830, NAP849, and NAP962) in N, N-dimethylformamide (DMF). Recombinant protease activities were assayed using the cognate fluorogenic substrates as follows: trypsin (Z-Gly-Gly-Arg-NHMec), thrombin (Boc-Val-Pro-Arg-NHMec), plasmin (Boc-Val-Leu-Lys-NHMec), human neutrophil elastase (MeO-Succinyl-Ala-Ala-Pro-Val-NHMec), and chymotrypsin (Succinyl-Ala-Ala-Pro-Phe-NHMec). Each substrate was used at a final concentration of 50 μM, in the appropriate buffer for each protease. All inhibition assays were performed in microtiter plates maintained at 37°C in a final volume of 100 μL. The reaction was initiated by the addition of each protease (approx. 0.01 μg/well) and the rate of substrate hydrolysis was recorded continuously at 37°C, over a 60 min period, by measuring the rate of increase in fluorescence (at λex 360 nm, λem 480 nm) using a FLUOstar Optima microplate reader (BMG Labtech).
The resultant inhibition progress curves obtained for each inhibitor were analyzed by the kinetic models developed by [Tian and Tsou (1982)] and [Walker and Elmore (1984)], for irreversible inhibitors, with curve fitting being achieved using GraFit (Erithacus Software), as described previously ([Ferguson et al., 2016]).
FIGURE 4 Progress curves for (A), chymotrypsin-catalysed hydrolysis of Succinyl-Ala-Ala-Pro-Phe-NHMec, in the presence of varying concentrations of NAP849. (B), NE-catalysed hydrolysis of MeO-succinyl-Ala-Ala-Pro-Val-NHMec, in the presence of varying concentrations of NAP800. (C) Trypsin-catalysed of Z-Gly-Gly-Arg-NHMec, in the presence of NAP830. (D) Plasmin-catalysed hydrolysis of Boc-Val-Leu-Lys-NHMec, in the presence of varying concentrations of NAP962. Assays were carried out in PBS, pH 7.4, at 37°C, in the presence of a range of inhibitor concentrations (0.25–50 μM) and a fixed concentration (50 μM) of the appropriate substrate for each protease.
The “product progress” curves for substrate hydrolysis in the presence of an inhibitor (Figure 4) are indicative of the action of irreversible inhibitors operating through the kinetic scheme illustrated in Figure 6. In this scheme, the formation of the reversible enzyme–inhibitor complex (EI) is zcharacterized by the inhibitor constant K i. This is converted into the covalent/irreversible complex (E-I) characterized by a first-order rate constant k 3. The overall second-order rate constant for the inactivation of E by I is given by the ratio k 3/K i ([Walker and Elmore, 1984]; [Tsou, 1988]). […]
Protease inactivation by each of the compounds under study was evaluated using a fluorogenic enzyme assays. […]

Compound: CC(C)N(CC(=O)NCC(=O)NCC(=O)NCCCOCCOCCOCCCNC(=O)CCCCC1SCC2NC(=O)NC21)C(=O)ON1C(=O)CCC1=O (stereo not drawn) [NAP800, Succinimidoyl-CO-NVal-Gly-Gly-PEG-Biotin]
- pKi (MeO-Succinyl-Ala-Ala-Pro-Val-NHMec 50 μM, PBS pH 7.4, 37°C, mean ± SD (n=2)): 5.22
- k 3 (first-order rate constant, PBS pH 7.4, 37°C, mean ± SD (n=2)): 0.38(± 0.06) min^−1
- second-order rate constant (k 3/K i) relative to the analogous valine diphenyl phosphonate QUBEL1 (fold greater than QUBEL1): approximately five-fold
- k 3 / K i (second-order rate constant of inactivation, PBS pH 7.4, 37°C, mean ± SD (n=2)): 6.41 × 10^4 M^−1 min^−1 and 6.4 (± 0.57) × 10^4 M^−1 min^−1
